Target: human recombinant LANCL1 (hLANCL1) (Homo sapiens, UniProt O43813)
Assay: [3H]ABA equilibrium saturation binding, nitrocellulose filtration

human recombinant LANCL1 (hLANCL1), sequence (O43813 whole entry): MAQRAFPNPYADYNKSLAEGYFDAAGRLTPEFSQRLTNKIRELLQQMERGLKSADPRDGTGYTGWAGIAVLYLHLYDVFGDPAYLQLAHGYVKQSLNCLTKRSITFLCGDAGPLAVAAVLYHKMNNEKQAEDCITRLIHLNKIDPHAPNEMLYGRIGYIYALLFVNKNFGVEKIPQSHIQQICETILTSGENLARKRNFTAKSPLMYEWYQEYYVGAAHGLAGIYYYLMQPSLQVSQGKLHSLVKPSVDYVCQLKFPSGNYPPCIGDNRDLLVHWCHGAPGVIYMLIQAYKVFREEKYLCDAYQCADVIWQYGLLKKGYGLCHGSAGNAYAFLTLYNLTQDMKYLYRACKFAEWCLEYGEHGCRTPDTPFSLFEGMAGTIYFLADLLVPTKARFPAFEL

- Kd: 1000 ± 400 nM
SMILES: CC1=CC(=O)CC(C)(C)C1(O)/C=C/C(C)=C\C(=O)O (racemic) [ABA, (±)-ABA]

Source: paper PMC8237609 (Molecular Metabolism, 2021)
